# Test results published in patent US8835447B2, “Method for treating androgen receptor positive cancers” (priority 2009, dated 2014).
# Columns and labels:
# [1] = tested on: AR protein in CWR22R cells; experiment: Western blot of AR protein levels; format: cell-based, human; settings: 10 mM of hits for 36 hrs
# Protocol: FIGS. 3A-3D depict data showing a that reduction of AR protein levels is associated with toxicity of the selected AR inhibitor hits to PCa cells. […] is a photographic representation of Western blotting of lysates from CWR22R cells treated with […] of the indicated hits for 36 hrs. […] GAPDH antibody was used to control for protein loading. FIG. 3B provides a graphical representation of data showing that, unlike parental CWR22R cells, a clone selected in the presence of c52 (c52R) is resistant to the effects of c52. AR protein expression in the c52R clone of CWR22R is not reduced by c52 treatment. Western blotting of parental and c52-resistant CWR22R cells with or without c52 treatment (10 μM for 36 hrs). FIG. 3C provides a graphical representation of data from analyzing cell viability by methylene blue staining 4 days after compound addition. Error bars—standard deviation between triplicates within experiment. FIG. 3D provides a graphical representation of data showing effects of the selected compounds on cell cycle distribution of CWR22R cells measured by propidium iodide staining of cellular DNA content by fluorescent activated cell sorting. Assay was done twice. Error bars—deviation between two measurements.
# Western blot analysis. […] Total protein concentration was determined using Dc Protein Assay (BioRad, Hercules, Calif.). […]
# [2] = tested on: NIH Swiss mice; experiment: Compound safety in mice, dose escalation; format: in vivo; settings: three i.p. injections 20x, 50x, 100xIC50 in 3 day intervals
# Protocol: Testing of compound safety in mice was done according to an IACUC-approved protocol. The experiment was performed using outbred 8 week old NIH Swiss male mice from Harlan (Indianapolis, Ind.), 4 mice per group. IC50 concentrations were used to calculate in vivo doses based on mouse weight (IC50 in vivo dose equivalent in mg/kg=IC50 in mg/ml×1000, based on the assumption that 1 g of mouse tissues have an approximate volume of 1 ml). The compounds were injected intraperitoneally (i.p.) in 25% DMSO-75% PBS starting from 20×IC50 equivalent of in vitro cytotoxic dose of compounds. […]. The control group of mice received 3 injections of 25% DMSO-75% PBS in intervals of three days. Blood biochemistry analysis was performed by BioReliance (Rockville, Md.).
# Five hit compounds, representing both the ARTIS and ARTIK categories (c6, c11, c17, c52 and c85), were selected for in vivo tests based on all of the previous assays. Compound c5 was rejected due to very low microsomal stability (<5% after 1 hour incubation with rat microsomes). The toxicity of the compounds was evaluated in a dose escalation assay in which male NIH Swiss mice (n=4) received three sequential intraperitoneal (i.p.) injections of each compound delivered in 3 day intervals. […]. On the day after the last injection, half of the mice in each group were sacrificed for gross pathology examination and collection of blood for serum biochemistry assays, which include total protein, glucose, bilirubin, and creatinine levels, activity of liver enzymes, and ion concentrations. The remaining mice were sacrificed and evaluated similarly 7 days after the last compound injection. […] A minor decrease in serum glucose concentration (70-80% of control) was observed on the day after the last compound injection in almost all mice, but glucose levels were normal a week later (data not shown). Low serum glucose level might reflect of a weak transient GR-inhibitory effect of the selected compounds.
# [3] = tested on: CWR22R tumors; experiment: CWR22R xenograft model in nude mice; format: in vivo, mouse; settings: for CWR22R tumor growth: five daily i.v. injections, c52 at 18 mg/kg/day
# Text: FIGS. 6A and 6B provide data showing anti-tumor activity of the selected hits in mouse models of androgen-independent PCa. FIG. 6A provides a graphical representation of data obtained from i.p. injection of the listed compounds or DMSO vehicle into nude mice carrying subcutaneous (s.c.) C4-2 tumors. Six daily injections were given starting when tumors were around 100 mm3 in size. There were 4-5 mice per group with two tumors per mouse. Asterisks (*) and number signs (#) are placed under the means of measurement in the c6 and c11 groups respectively which are statistically different from the control group by ANOVA test (>99%) B. C52 (9 mg/kg or 18 mg/kg) or DMSO vehicle was injected into the tail vein of nude mice carrying s.c. CWR22R tumors. Five daily injections were given starting when tumors were around 40 mm3 in size. There were 10 mice per group with one tumor per mouse. Asterisks (*) are placed under the means of measurement which are statistically different from the control group by ANOVA test (>99%). Error bars in both FIGS. 6A and B—standard deviation between the size of tumors within a given treatment group.
# Testing of the anti-tumor effect of compounds in mice was done according to an IACUC-approved protocol in 8 week old male athymic nude mice from Harlan (Indianapolis, Ind.). For the C4-2 xenograft model, 10^6 C4-2 cells were injected subcutaneously (s.c.) in 2 sites of each mouse in 50% matrigel (BD Biosciences, Bradford, Mass.) in PBS. Upon development of visible tumors, they were measured using digital caliper. Tumor volume was calculated according to the formula: […]. Mice were injected with compounds i.p. daily for 6 days starting on the day when at least one tumor per mouse reached 100 mm^3 in size. Five mice per group were used. For the CWR22R xenograft model, CWR22R cells were inoculated (10^5 cells per inoculum) in 50% matrigel, one site per mouse. Treatment was started when the tumor grew to a size of at least 25 mm^3. Compounds were diluted in captisol (CyDex, Lenexa, Kans.) and delivered intravenously (to reduce “first pass” liver effect) once a day for 5 days. Ten mice per group were used. Mice were monitored daily and tumors were measured every other day. Mice were euthanized according to institutional regulations when the size of tumor reached 1000 mm^3. Comparison of the tumor growth in control and treated mice was done using ANOVA test.
# ARTIK compounds, c52 and c85, were also tested in the CWR22R model.
smiles,measurement,setting,value
CCCn1c2ccccc2c2cc(C(C)=O)ccc21 [c52],AR protein level in CWR22R cells,[1],complete disappearance of AR protein
same,"toxicity in mice (visual inspection, gross pathology)",[2],generally non-toxic
same,mice in which tumors completely disappeared,"[3]; among 10 mice, 18 mg/kg/day",2 mice
same,mice in which tumors did not grow in size,"[3]; among 10 mice, 18 mg/kg/day",5 mice
same,mice in which tumors regressed,"[3]; among 10 mice, 18 mg/kg/day",1 mouse
same,adverse side effects,"[3]; c52 18 mg/kg/day i.v., 5 days",without any noticeable adverse side effects
same,CWR22R tumor growth,[3]; 18 mg/kg/day,suppressed growth
same,CWR22R tumor growth,"[3]; listed as C52, 18 mg/kg/day",effective
